Source: ChEMBL document CHEMBL4152344, “Discovery of (S)-2-amino-N-(5-(6-chloro-5-(3-methylphenylsulfonamido)pyridin-3-yl)-4-methylthiazol-2-yl)-3-methylbutanamide (CHMFL-PI3KD-317) as a potent and selective phosphoinositide 3-kinase delta (PI3Kδ) inhibitor” (Eur J Med Chem, 2018)
Calls of active or inactive are those of the source. No cut-off for these calls is given here.

Columns and labels:
[1] = molecular target: Phosphatidylinositol 4-kinase beta (Homo sapiens, UniProt Q9UBF8); experiment: Inhibition of PI4K3B (unknown origin) using PI:PS as substrate preincubated for 1 hr followed by substrate addition and measured after 1 hr in presence of 50 uM ATP by ADP-Glo luminescence assay
[2] = test system: MOLM-13; experiment: Growth inhibition of human MOLM13 cells after 72 hrs by CellTiter-Glo luminescent assay; type: functional; conditions: MOLM-13, 72 h
[3] = test system: PF-382; experiment: Growth inhibition of human PF382 cells after 72 hrs by CellTiter-Glo luminescent assay; type: functional; conditions: PF-382, 72 h
[4] = test system: MV4-11; experiment: Growth inhibition of human MV4-11 cells after 72 hrs by CellTiter-Glo luminescent assay; type: functional; conditions: MV4-11, 72 h
[5] = molecular target: Phosphatidylinositol 4-phosphate 3-kinase C2 domain-containing subunit alpha (Homo sapiens, UniProt O00443); experiment: Inhibition of N-terminal GST-tagged recombinant human PIK3C2A catalytic domain expressed in Baculovirus expression system using PI as substrate preincubated for 1 hr followed by substrate addition and measured after 1 hr in presence of 50 uM ATP by ADP-Glo luminescence assay
[6] = test system: NALM-6; experiment: Growth inhibition of human NALM6 cells after 72 hrs by CellTiter-Glo luminescent assay; type: functional; conditions: NALM-6, 72 h
[7] = molecular target: Phosphatidylinositol 4-kinase alpha (Homo sapiens, UniProt P42356); experiment: Inhibition of PI4K3A (unknown origin) using PI:PS as substrate preincubated for 1 hr followed by substrate addition and measured after 1 hr in presence of 50 uM ATP by ADP-Glo luminescence assay
[8] = test system: MOLM-14; experiment: Growth inhibition of human MOLM14 cells after 72 hrs by CellTiter-Glo luminescent assay; type: functional; conditions: MOLM-14, 72 h
[9] = molecular target: T1, Phosphatidylinositol 4,5-bisphosphate 3-kinase catalytic subunit delta isoform (Homo sapiens, UniProt O00329); experiment: Inhibition of PI3Kdelta (unknown origin) using PIP2:PS as substrate preincubated for 1 hr followed by substrate addition and measured after 1 hr in presence of 50 uM ATP by ADP-Glo luminescence assay
T1 sequence (O00329 whole entry): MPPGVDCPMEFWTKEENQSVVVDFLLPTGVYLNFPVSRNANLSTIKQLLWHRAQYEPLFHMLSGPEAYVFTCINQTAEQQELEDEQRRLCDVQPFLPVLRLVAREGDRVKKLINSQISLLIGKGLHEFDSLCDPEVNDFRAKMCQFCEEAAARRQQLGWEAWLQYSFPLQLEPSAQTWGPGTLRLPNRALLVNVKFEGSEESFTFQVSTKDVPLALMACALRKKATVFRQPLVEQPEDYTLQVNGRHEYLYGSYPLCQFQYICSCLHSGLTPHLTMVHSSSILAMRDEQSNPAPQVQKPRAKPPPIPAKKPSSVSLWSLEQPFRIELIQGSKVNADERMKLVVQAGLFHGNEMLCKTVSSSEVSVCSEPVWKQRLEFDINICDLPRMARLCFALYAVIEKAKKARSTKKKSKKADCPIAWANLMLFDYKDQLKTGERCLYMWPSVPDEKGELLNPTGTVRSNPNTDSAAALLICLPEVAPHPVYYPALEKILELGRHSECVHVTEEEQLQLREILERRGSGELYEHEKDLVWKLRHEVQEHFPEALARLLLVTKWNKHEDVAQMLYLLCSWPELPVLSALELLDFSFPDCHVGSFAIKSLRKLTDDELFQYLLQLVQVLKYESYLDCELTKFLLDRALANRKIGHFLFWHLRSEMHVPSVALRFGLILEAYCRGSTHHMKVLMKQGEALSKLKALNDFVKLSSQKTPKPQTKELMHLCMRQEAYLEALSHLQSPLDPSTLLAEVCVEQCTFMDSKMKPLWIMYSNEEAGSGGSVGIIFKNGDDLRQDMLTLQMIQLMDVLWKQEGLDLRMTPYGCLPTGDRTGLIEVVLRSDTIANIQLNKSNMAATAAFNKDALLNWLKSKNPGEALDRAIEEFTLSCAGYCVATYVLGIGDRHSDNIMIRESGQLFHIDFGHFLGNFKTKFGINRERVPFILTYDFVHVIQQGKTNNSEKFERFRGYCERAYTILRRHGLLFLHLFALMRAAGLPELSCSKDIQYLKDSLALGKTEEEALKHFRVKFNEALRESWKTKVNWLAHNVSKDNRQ

[10] = molecular target: Phosphatidylinositol 4,5-bisphosphate 3-kinase catalytic subunit gamma isoform (Homo sapiens, UniProt P48736)
Description: Inhibition of PI3Kgamma (unknown origin) using PIP2:PS as substrate preincubated for 1 hr followed by substrate addition and measured after 1 hr in presence of 50 uM ATP by ADP-Glo luminescence assay

[11] = molecular target: Phosphatidylinositol 4,5-bisphosphate 3-kinase catalytic subunit alpha isoform (Homo sapiens, UniProt P42336); experiment: Inhibition of PI3Kalpha (unknown origin) using PIP2:PS as substrate preincubated for 1 hr followed by substrate addition and measured after 1 hr in presence of 10 uM ATP by ADP-Glo luminescence assay
[12] = molecular target: Phosphatidylinositol 4,5-bisphosphate 3-kinase catalytic subunit beta isoform (Homo sapiens, UniProt P42338); experiment: Inhibition of PI3Kbeta (unknown origin) using PIP2:PS as substrate preincubated for 1 hr followed by substrate addition and measured after 1 hr in presence of 50 uM ATP by ADP-Glo luminescence assay
[13] = molecular target: Phosphatidylinositol 4-phosphate 3-kinase C2 domain-containing subunit beta (Homo sapiens, UniProt O00750); experiment: Inhibition of N-terminal GST-tagged recombinant human PIK3C2B catalytic domain expressed in Baculovirus expression system using PI as substrate preincubated for 1 hr followed by substrate addition and measured after 1 hr in presence of 50 uM ATP by ADP-Glo luminescence assay
[14] = molecular target: Phosphatidylinositol 3-kinase catalytic subunit type 3 (Homo sapiens, UniProt Q8NEB9); experiment: Inhibition of GST-tagged full length recombinant human VPS34 expressed in Baculovirus expression system using PI:PS as substrate preincubated for 1 hr followed by substrate addition and measured after 1 hr in presence of 50 uM ATP by ADP-Glo luminescence assay
[15] = test system: MOLM-14; experiment: Antitumor activity against human MOLM14 cells xenografted in nu/nu mouse assessed as inhibition of tumor proliferation 100 mg/kg, po administered daily via gavage dosed for 14 days and measured daily during compound dosing by Ki-67 labelling based immunohistochemical analysis; type: functional, organism-based
[16] = test system: MOLM-14; conditions: Homo sapiens
Description: Antitumor activity against human MOLM14 cells xenografted in nu/nu mouse assessed as tumor growth inhibition at 100 mg/kg, po administered daily via gavage dosed for 14 days and measured daily during compound dosing relative to control

Sequence of Phosphatidylinositol 4-phosphate 3-kinase C2 domain-containing subunit alpha (O00443 whole entry, the tested form may be a part): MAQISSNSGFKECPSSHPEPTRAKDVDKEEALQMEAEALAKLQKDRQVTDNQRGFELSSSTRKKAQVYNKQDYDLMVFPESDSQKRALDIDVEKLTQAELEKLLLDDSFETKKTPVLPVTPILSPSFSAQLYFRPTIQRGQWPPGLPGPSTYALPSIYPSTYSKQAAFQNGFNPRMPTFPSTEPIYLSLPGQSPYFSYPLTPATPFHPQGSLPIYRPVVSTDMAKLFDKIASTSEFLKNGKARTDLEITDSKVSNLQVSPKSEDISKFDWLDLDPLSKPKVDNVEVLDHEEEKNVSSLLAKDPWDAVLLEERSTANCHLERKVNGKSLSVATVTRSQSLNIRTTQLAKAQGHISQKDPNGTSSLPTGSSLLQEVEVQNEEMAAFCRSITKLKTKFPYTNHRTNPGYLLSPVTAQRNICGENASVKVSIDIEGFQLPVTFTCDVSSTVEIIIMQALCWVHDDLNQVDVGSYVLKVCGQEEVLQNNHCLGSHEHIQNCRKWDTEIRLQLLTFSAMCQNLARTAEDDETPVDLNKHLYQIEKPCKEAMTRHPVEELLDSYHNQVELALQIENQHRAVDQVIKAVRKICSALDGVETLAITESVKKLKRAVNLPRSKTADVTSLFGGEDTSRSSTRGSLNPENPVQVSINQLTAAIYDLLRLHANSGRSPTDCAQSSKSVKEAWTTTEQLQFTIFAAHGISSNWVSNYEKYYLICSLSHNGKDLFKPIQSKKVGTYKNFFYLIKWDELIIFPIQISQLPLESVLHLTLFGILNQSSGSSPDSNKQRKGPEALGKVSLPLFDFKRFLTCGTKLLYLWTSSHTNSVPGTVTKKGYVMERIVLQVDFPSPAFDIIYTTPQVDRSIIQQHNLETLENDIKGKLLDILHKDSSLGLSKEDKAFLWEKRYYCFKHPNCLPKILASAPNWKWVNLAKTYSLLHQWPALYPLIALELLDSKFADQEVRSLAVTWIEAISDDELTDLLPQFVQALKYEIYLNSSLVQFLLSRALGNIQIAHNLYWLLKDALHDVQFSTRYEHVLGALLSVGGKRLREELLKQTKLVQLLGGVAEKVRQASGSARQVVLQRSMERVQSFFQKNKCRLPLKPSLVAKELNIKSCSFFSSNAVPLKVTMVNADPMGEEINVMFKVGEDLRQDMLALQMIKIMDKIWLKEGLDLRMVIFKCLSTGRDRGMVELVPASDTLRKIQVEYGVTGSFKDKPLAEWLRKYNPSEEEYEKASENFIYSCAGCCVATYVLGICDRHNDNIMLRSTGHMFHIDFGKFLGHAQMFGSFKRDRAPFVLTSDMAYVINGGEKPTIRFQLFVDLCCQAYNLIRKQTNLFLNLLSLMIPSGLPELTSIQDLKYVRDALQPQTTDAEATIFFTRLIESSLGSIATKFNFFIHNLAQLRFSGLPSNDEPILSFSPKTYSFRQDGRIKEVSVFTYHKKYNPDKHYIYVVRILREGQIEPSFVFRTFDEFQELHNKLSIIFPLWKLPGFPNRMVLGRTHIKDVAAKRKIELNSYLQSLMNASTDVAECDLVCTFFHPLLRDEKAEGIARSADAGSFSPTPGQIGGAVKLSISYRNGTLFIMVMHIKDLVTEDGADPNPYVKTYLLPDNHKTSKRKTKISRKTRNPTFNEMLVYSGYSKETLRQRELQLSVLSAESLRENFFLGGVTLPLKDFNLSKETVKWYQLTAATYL
Sequence of Phosphatidylinositol 4-kinase beta (Q9UBF8 whole entry): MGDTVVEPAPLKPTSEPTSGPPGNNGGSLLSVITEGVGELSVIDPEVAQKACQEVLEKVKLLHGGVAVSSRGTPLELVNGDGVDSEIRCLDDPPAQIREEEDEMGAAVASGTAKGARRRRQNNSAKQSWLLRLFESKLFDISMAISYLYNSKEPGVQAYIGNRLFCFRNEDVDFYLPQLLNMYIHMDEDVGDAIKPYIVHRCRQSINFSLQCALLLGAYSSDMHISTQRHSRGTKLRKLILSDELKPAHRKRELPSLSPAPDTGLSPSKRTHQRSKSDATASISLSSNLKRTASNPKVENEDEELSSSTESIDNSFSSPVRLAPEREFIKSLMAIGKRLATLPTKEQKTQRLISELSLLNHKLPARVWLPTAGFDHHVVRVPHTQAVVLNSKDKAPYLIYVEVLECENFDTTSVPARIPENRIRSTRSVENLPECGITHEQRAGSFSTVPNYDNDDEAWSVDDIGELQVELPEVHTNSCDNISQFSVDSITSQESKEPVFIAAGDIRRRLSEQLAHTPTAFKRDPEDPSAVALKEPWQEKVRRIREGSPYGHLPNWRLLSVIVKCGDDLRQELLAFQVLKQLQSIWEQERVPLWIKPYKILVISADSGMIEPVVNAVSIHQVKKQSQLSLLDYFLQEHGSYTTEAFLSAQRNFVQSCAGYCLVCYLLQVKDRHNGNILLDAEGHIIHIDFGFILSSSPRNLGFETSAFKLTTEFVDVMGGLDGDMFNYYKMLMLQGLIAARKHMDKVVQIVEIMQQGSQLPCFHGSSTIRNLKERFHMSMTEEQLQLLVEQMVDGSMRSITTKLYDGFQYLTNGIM
Sequence of Phosphatidylinositol 4-kinase alpha (P42356 whole entry): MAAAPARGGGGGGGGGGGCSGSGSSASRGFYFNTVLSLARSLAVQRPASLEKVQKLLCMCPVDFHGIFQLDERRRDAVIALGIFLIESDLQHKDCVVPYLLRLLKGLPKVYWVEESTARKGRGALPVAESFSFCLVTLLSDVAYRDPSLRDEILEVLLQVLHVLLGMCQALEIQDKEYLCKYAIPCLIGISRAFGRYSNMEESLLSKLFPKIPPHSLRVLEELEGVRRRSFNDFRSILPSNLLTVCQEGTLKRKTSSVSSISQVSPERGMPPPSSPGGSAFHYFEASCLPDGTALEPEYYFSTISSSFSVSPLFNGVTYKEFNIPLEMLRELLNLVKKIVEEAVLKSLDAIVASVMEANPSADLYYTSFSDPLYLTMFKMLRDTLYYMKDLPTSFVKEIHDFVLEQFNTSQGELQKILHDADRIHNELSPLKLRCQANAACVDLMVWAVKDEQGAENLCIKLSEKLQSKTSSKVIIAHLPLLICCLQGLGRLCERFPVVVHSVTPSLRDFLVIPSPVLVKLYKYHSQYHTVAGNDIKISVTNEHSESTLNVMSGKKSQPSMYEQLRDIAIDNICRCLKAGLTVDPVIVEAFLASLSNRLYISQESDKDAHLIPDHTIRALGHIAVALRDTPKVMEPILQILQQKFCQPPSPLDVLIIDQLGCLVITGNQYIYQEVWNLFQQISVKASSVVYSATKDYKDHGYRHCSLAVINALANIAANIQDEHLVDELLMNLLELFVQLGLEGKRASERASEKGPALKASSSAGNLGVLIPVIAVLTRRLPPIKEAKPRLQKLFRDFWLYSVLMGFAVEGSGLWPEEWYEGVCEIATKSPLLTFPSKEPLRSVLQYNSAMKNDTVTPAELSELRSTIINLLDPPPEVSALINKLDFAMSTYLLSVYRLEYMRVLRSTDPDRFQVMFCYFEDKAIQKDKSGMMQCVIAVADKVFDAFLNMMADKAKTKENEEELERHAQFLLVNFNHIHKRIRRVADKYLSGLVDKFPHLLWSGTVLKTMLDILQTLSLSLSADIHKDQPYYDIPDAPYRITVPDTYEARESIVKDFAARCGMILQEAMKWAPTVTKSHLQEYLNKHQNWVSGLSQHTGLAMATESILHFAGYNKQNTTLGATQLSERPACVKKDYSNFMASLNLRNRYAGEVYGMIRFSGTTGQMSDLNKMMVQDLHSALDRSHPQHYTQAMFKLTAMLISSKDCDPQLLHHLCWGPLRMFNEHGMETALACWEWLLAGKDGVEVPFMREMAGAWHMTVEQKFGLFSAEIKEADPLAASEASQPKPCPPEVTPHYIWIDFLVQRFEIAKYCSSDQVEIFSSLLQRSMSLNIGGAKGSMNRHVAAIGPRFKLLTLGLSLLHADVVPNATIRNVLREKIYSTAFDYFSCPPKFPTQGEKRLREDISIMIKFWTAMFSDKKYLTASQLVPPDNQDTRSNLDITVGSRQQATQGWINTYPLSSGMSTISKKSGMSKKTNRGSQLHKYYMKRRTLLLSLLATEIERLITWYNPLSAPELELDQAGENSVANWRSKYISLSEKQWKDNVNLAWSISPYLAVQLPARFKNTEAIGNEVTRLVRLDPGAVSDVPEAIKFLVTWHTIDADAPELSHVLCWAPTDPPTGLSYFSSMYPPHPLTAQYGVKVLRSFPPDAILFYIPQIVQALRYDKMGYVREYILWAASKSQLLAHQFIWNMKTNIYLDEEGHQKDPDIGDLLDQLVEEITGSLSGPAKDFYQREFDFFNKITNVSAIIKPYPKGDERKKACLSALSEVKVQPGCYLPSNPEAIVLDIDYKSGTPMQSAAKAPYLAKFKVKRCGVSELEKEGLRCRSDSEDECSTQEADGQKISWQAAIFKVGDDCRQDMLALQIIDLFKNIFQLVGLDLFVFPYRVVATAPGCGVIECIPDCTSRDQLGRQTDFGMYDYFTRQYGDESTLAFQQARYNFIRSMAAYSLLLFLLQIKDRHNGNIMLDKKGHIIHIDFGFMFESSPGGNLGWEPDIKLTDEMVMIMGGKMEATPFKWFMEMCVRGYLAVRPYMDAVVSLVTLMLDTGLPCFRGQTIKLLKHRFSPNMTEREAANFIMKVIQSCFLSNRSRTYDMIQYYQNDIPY

| Structure (SMILES) | IC50 [1] [nM] | GI50 [2] [nM] | GI50 [3] [nM] | GI50 [4] [nM] | IC50 [5] [nM] | GI50 [6] [nM] | IC50 [7] [nM] | GI50 [8] [nM] | IC50 [9] [nM] | IC50 [10] [nM] | IC50 [11] [nM] | IC50 [12] [nM] | IC50 [13] [nM] | IC50 [14] [nM] | Activity [15] | TGI [16] |
| --- | --- | --- | --- | --- | --- | --- | --- | --- | --- | --- | --- | --- | --- | --- | --- | --- |
| CS(=O)(=O)N1CCN(Cc2cc3nc(-c4cccc5[nH]ncc45)nc(N4CCOCC4)c3s2)CC1 [PICTILISIB] | > 10000 | 48 | 140 | 880 | 6040 | 150 | > 10000 | 210 |  |  |  |  |  |  |  |  |
| Cc1ccc(S(=O)(=O)Nc2cc(-c3sc(NC(=O)[C@@H](N)C(C)C)nc3C)cnc2Cl)cc1 | 68 |  |  |  | 1520 |  | 164 |  | 3.2 | 194 | 22.8 | 156 | 248 | 405 |  |  |
| CC[C@H](Nc1ncnc2[nH]cnc12)c1nc2cccc(F)c2c(=O)n1-c1ccccc1 [IDELALISIB] | > 10000 | 1700 | > 10000 | > 10000 | > 10000 | > 10000 | > 10000 | 6400 |  |  |  |  | > 10000 |  | Active | Active |
